Experimental data as given in US11759496B2, “Compounds and pharmaceutical use thereof in the treatment of cancer” (priority 2016, dated 2023).
Entries after “also recorded” stand apart in the source; their conditions may differ. Like-named read-outs stand apart in the source and are kept apart here. Non-standard residues stand in square brackets, D forms with d. Residues, ends and D or L forms follow the SMILES beside them. No end group written: not given here. *: point of attachment. NMeR = CN[C@@H](CCCNC(=N)N)C(=O)O; X1 = N=C(N)NCCC[C@H](CN)C(=O)*; β3hK = NCCCC[C@H](N)CC(=O)O; Nle = CCCC[C@H](N)C(=O)O

What was measured:
[1] = system: B-chronic lymphocytic leukemia (CLL) primary cells; details: WO 2013/182650, cited from earlier work; for induction of PCD: soluble peptide
[2] = target: T1, CD47 (membrane preparation from MEC-1 cells) (Homo sapiens, UniProt Q08722); test: Binding affinity by biolayer interferometry (Octet RED96) on biotinylated MEC-1 cell membrane preparation; details: NPD = Non Pertinent Data; for Kd(μM)PR: Table 4, N-methyl peptides
T1 construct: MEC-1 cell membrane preparation were biotinylated with the EZ-Link NHS-PEG4-Biotin kit; endogenous in cells; host or cells: MEC-1 cells (membrane preparation)
T1 sequence (Q08722 19-323): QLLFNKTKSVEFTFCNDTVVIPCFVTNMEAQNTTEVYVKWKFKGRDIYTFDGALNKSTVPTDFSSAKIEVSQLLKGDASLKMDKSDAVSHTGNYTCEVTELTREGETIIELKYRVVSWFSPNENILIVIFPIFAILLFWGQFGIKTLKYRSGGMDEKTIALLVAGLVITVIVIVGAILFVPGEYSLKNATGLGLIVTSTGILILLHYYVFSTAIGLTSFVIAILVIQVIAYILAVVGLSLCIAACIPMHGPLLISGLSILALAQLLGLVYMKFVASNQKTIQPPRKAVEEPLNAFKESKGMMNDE
Protocol: The binding affinities of peptides for a membrane preparation from MEC-1 cells were measured by biolayer interferometry on an Octet RED96 System (Pall FortéBio Corp., Menlo Park, Calif.).
The binding affinities of peptides for a membrane preparation from MEC-1 cells were measured by biolayer interferometry on an Octet RED96 System (Pall FortéBio Corp., Menlo Park, Calif.). This system monitors interference of light reflected from two sources (an internal reflection surface and the liquid/solid interface of a fiber optic sensor) to measure the rate of binding of molecules to the biosensor surface.
MEC-1 cell membrane preparation were biotinylated with the EZ-Link NHS-PEG4-Biotin kit from Thermo-Scientific. Biotinylated membranes were then loaded onto SuperStreptavidin (SSA) biosensors (Pall FortéBio Corp.) at empirically determined concentrations.
In order to highlight the pharmacological properties of these peptides, a systematic SAR study by the development of a binding assay allowing to the assessment of the affinity of the 4N1K analogues to CD47 was initiated. […] An Ala-scan to identify the pharmacophores of 4N1K was implemented.
The binding affinities of peptides for a MEC-1 cells membrane preparation were measured by biolayer interferometry on an Octet RED96 System (Pall FortéBio Corp., Menlo Park, Calif.). This system monitors interference of light reflected from two sources (an internal reflection surface and the liquid/solid interface of a fiber optic sensor) to measure the rate of binding of molecules to the biosensor surface. MEC-1 cells membrane preparation is biotinylated with the EZ-Link NHS-PEG4-Biotin kit from Thermo-Scientific and excess biotin is removed using desalting column from Thermo-Scientific. Biotinylated membranes are then loaded onto SuperStreptavidin (SSA) biosensors (Pall FortéBio Corp.) at empirically determined concentrations. […] Typically, the biosensors were pre-equilibrated in PBS containing either biotinylated membranes or biocytine 100 μg/mL. Biosensors are then equilibrated in assay buffer for 10 min, brought to baseline in assay buffer for 60 sec. and transferred to wells containing peptide in dose-response (association for 120 sec. and dissociation for 300 sec.). The double reference with either membrane-loaded biosensors without any peptide dose-response or biocytine-loaded biosensors with each peptide dose-response were run in parallel for background signal double subtractions. Binding kinetics were calculated using the FortéBio Data Analysis v8.2 software.

MEC-1 cells = test: MEC-1 cell death (PCD) after 2 h peptide treatment; type: cell-based; details: for MEC-1 Cell Death (%) 2 h: Table 2, NPD = Non Pertinent Data; for MEC-1 Cell Death (%) 2 h, [peptides] = 200 μM: Table 3, 200 μM peptide; for Cell Death (MEC-1, 2 h): Table 4
Protocol: Then the peptides structures were tested via NMR and X-ray. The peptides were also tested for their activity on MEC-1 and their KDs and Retention times on LCMS were determined.

[3] = Solubility of the peptides in water / aqueous buffer (NMR, CD samples); type: physicochemical; details: for solubility of peptide (in words): aqueous buffer, NMR / CD samples
Protocol: CD spectra were recorded on a Jasco 815 spectropolarimeter (Jasco Inc., Easton, Md.) over the wavelength range 190-260 nm, at 0.2 nm intervals and 10 nm·min^−1 scan speed. Peptides were dissolved at 50 μM concentration in a 10 mM sodium phosphate buffer at pH 7.4, using 0.1 cm path length quartz cells (Hellma, Mullheim, Germany). CD spectra were deconvoluted with CDFriend program in order to estimate the peptide secondary structure content.
NMR experiments were recorded on a 500 MHz Bruker Avance III spectrometer (Wissembourg, France) equipped with a TCI cryoprobe. NMR samples were prepared in 50 mM sodium succinate buffer, pH 5, using 2 mM peptide concentration. Sodium 2,2-dimethyl-2-silapentane-d6-5-sulfonate (Sigma Aldrich) was added at 0.1 mM concentration for chemical shift calibration and measurement of the solubilized peptide concentration. NMR experiments were processed with TOPSPIN 2.1 software (Bruker) and spectra were analyzed with Sparky program. ^1H, ^13C and ^15N resonances were assigned using 2D ^1H-^1H TOCSY (DIPSI2 isotropic scheme of 70 ms duration), 2D ^1H-^1H ROESY (300 ms mixing time), 2D ^1H-^13C HSQC, 2D ^1H-^15N HSQC, and 2D ^1H-^13C HMBC spectra. The complete ^1H, ^13C and ^15N NMR assignments of peptides 4N1K, PKT2, PKHB1 and 4NGG are provided in Tables S1-S4 (supporting information). […] The chemical shift deviations of Ha protons and Cα carbons were calculated as the differences between observed chemical shifts and random coil values reported in water. The conformational analysis of thrombospondin-1 was carried out on the crystal structure of a C-terminal fragment of human thrombospondin-1 using Pymol (Schrödinger) and Procheck programs. Predictions of NMR chemical shifts on the X-ray structure were carried out using SHIFTX2 program.

[4] = target: T2, CD47 (NT.115-labeled membrane) (Homo sapiens, UniProt Q08722); test: Binding affinity by microscale thermophoresis (MST), NT.115-labeled membrane; details: Table 2; average of at least three independent experiments; NPD = Non Pertinent Data
T2 construct: the concentration of the NT.115-labeled membrane was kept constant; endogenous in cells
T2 sequence (Q08722 19-323): as above
Protocol: For all experiments the concentration of the NT.115-labeled membrane was kept constant, while the concentrations of the ligand (peptide) was varied. After a short incubation time (5 min) the samples were loaded into MST premium glass capillaries and the MST analysis was performed using the Monolith NT.115.

[5] = Table 2, average of at least three independent experiments, read-out: Kd (μM) (OR)
[6] = Table 3, average of two or more measurements, read-out: Kd
[7] = Table 2, average of at least three independent experiments
[8] = Table 3, average of two or more measurements

In the case of `CSCC[C@H](NC(=O)[C@@H](NC(=O)[C@@H](NC(=O)[C@H](Cc1ccc(O)cc1)NC(=O)[C@H](Cc1ccccc1)NC(=O)[C@H](CCCNC(=N)N)NC(=O)[C@H](N)CCCCN)C(C)C)C(C)C)C(=O)N[C@@H](Cc1c[nH]c2ccccc12)C(=O)N[C@@H](CCCCN)C(=O)N[C@H](CCCCN)C(=O)O` [PKHB1, reference compound], the “selective elimination of leukemic B-cells versus healthy B-lymphocytes” value [1] is given as “specifically eliminates leukemic B-cells”, the Kd [2, 5] is given as 43 ± 21 µM and the Kd [2, 6] is given as 43 ± 21 µM. For the same molecule, the “MEC-1 Cell Death (%) 2 h” value (MEC-1 cells) was 63%, the “MEC-1 Cell Death (%) 2 h, [peptides] = 200 μM” value (MEC-1 cells) was 63% and the “Cell Death (MEC-1, 2 h)” value (MEC-1 cells) was 78%.

In the case of `CSCC[C@H](NC(=O)[C@@H](NC(=O)[C@@H](NC(=O)[C@H](Cc1ccc(O)cc1)NC(=O)[C@H](Cc1ccccc1)NC(=O)[C@@H](N)CCCNC(=N)N)C(C)C)C(C)C)C(=O)N[C@@H](Cc1c[nH]c2ccccc12)C(=O)N[C@@H](CCCCN)C(=O)O` [4N1, reference compound], the “Kd (μM) (OR)” value [2, 7] is reported as “NPD”, the “MEC-1 Cell Death (%) 2 h” value (MEC-1 cells) is reported as 13% and the “solubility of peptide (in words)” value [3] is reported as “least soluble; also recorded: poorly soluble”.

For `CCCC[C@H](NC(=O)[C@@H](NC(=O)[C@@H](NC(=O)[C@H](Cc1ccccc1)NC(=O)[C@H](Cc1ccccc1)NC(=O)[C@H](CCCNC(=N)N)N(C)C(=O)[C@H](N)CCCCN)C(C)C)C(C)C)C(=O)N[C@@H](Cc1c[nH]c2ccccc12)C(=O)N[C@@H](CCCCN)C(=O)N[C@H](CCCCN)C(=O)O` [PKT16-FF, H-(D)K ψ(CONMe)R F F V V X W K (D)K-OH] (H-[dK][NMeR]FFVV[Nle]WK[dK]-OH), the solubility in water ([3]; water) was “low solubility in water”.

In the case of `CSCC[C@H](NC(=O)[C@@H](NC(=O)[C@@H](NC(=O)[C@H](Cc1ccc(O)cc1)NC(=O)[C@H](Cc1ccccc1)NC(=O)[C@@H](CN)CCCNC(=N)N)C(C)C)C(C)C)C(=O)N[C@@H](Cc1c[nH]c2ccccc12)C(=O)N[C@@H](CCCCN)CC(=O)O` [compound 3, (β^2hR)FYVVMW(β^3hK)] (X1-FYVVMW[β3hK]-OH), the “Kd (μM) (OR)” value [2, 7] is reported as “NPD”, the “MEC-1 Cell Death (%) 2 h” value (MEC-1 cells) is reported as “NPD” and the “solubility of peptide (in words)” value [3] is reported as “poorly soluble”. For the same molecule, the “Kd (μM) (MST)” value [4] was “NPD”.

For `CSCC[C@H](NC(=O)CNC(=O)CNC(=O)[C@H](Cc1ccc(O)cc1)NC(=O)[C@H](Cc1ccccc1)NC(=O)[C@H](CCCNC(=N)N)NC(=O)[C@@H](N)CCCCN)C(=O)N[C@@H](Cc1c[nH]c2ccccc12)C(=O)N[C@@H](CCCCN)C(=O)N[C@@H](CCCCN)C(=O)O` [4NGG, reference compound] (H-KRFYGGMWKK-OH), the “induction of PCD” value [1] is listed as “unable to induce PCD”, the “Kd (μM) (OR)” value [2, 7] is listed as “NPD” and the “MEC-1 Cell Death (%) 2 h” value (MEC-1 cells) is listed as 2%. The “Kd (μM) (MST)” value [4] was “NPD”.

For `CSCC[C@H](NC(=O)[C@@H](NC(=O)[C@@H](NC(=O)[C@H](Cc1ccc(O)cc1)NC(=O)[C@H](Cc1ccccc1)NC(=O)[C@H](CCCNC(=N)N)NC(C)=O)C(C)C)C(C)C)C(=O)N[C@@H](Cc1c[nH]c2ccccc12)C(=O)N[C@@H](CCCCN)C(N)=O` [compound 1], the “MEC-1 Cell Death (%) 2 h” value (MEC-1 cells) was 27% and the “solubility of peptide (in words)” value ([3]; listed as PKT1) was “least soluble; also recorded: poorly soluble”.

In the case of `CSCC[C@H](NC(=O)[C@@H](NC(=O)[C@@H](NC(=O)[C@H](Cc1ccc(O)cc1)NC(=O)[C@H](Cc1ccccc1)NC(=O)[C@H](CCCNC(=N)N)NC(=O)[C@@H](N)CCCCN)C(C)C)C(C)C)C(=O)N[C@@H](Cc1c[nH]c2ccccc12)C(=O)N[C@@H](CCCCN)C(=O)N[C@@H](CCCCN)C(=O)O` [4N1K, reference compound], the “selective elimination of leukemic B-cells versus healthy B-lymphocytes” value [1] is listed as “specifically eliminates leukemic B-cells”, the “induction of PCD” value [1] is listed as “induces caspase-independent PCD” and the Kd [2, 5] is listed as 19 ± 1.6 µM. For the same molecule, the Kd [2, 6] was 19 ± 1.6 µM, the “MEC-1 Cell Death (%) 2 h” value (MEC-1 cells) was 23% and the “MEC-1 Cell Death (%) 2 h, [peptides] = 200 μM” value (MEC-1 cells) was 23%.

For `CSCC[C@H](NC(=O)[C@@H](NC(=O)[C@@H](NC(=O)[C@H](Cc1ccc(O)cc1)N(C)C(=O)[C@H](Cc1ccccc1)NC(=O)[C@H](CCCNC(=N)N)NC(=O)[C@H](N)CCCCN)C(C)C)C(C)C)C(=O)N[C@@H](Cc1c[nH]c2ccccc12)C(=O)N[C@@H](CCCCN)C(=O)N[C@H](CCCCN)C(=O)O` [PKT9, H-(D)K R F ψ(CONMe)Y V V M W K (D)K-OH], the “Kd(μM)PR” value [2] was “NPD” and the “Cell Death (MEC-1, 2 h)” value (MEC-1 cells) was 0%.

For `CSCC[C@H](NC(=O)[C@@H](NC(=O)[C@@H](NC(=O)[C@H](Cc1ccc(O)cc1)NC(=O)[C@H](Cc1ccccc1)NC(=O)[C@H](CCCNC(=N)N)NC(=O)[C@H](N)CCCCN)C(C)C)C(C)C)C(=O)N[C@@H](C)C(=O)N[C@@H](CCCCN)C(=O)N[C@H](CCCCN)C(=O)O` [W8/A, kRFYVVM(A)Kk] (H-[dK]RFYVVMAK[dK]-OH; N-terminus and C-terminus assumed), the “Kd (μM)” value [2, 8] was “NPD” and the “MEC-1 Cell Death (%) 2 h, [peptides] = 200 μM” value (MEC-1 cells) was 35%.

For `CSCC[C@H](NC(=O)[C@@H](NC(=O)[C@H](C(C)C)N(C)C(=O)[C@H](Cc1ccc(O)cc1)NC(=O)[C@H](Cc1ccccc1)NC(=O)[C@H](CCCNC(=N)N)NC(=O)[C@H](N)CCCCN)C(C)C)C(=O)N[C@@H](Cc1c[nH]c2ccccc12)C(=O)N[C@@H](CCCCN)C(=O)N[C@H](CCCCN)C(=O)O` [PKT8, H-(D)K R F Y ψ(CONMe)V V M W K (D)K-OH], the “Kd(μM)PR” value [2] was “NPD” and the “Cell Death (MEC-1, 2 h)” value (MEC-1 cells) was 0%.

In the case of kRF(A)VVMWKk ([dK]RFAVVMWK[dK]) [Y4/A], the “Kd (μM)” value [2, 8] is reported as “NPD” and the “MEC-1 Cell Death (%) 2 h, [peptides] = 200 μM” value (MEC-1 cells) is reported as 0%.

For `CSCC[C@H](NC(=O)[C@@H](NC(=O)[C@@H](NC(=O)[C@H](Cc1ccc(O)cc1)NC(=O)[C@H](C)NC(=O)[C@H](CCCNC(=N)N)NC(=O)[C@H](N)CCCCN)C(C)C)C(C)C)C(=O)N[C@@H](Cc1c[nH]c2ccccc12)C(=O)N[C@@H](CCCCN)C(=O)N[C@H](CCCCN)C(=O)O` [F3/A, kR(A)YVVMWKk] (H-[dK]RAYVVMWK[dK]-OH; N-terminus and C-terminus assumed), the “Kd (μM)” value [2, 8] was “NPD” and the “MEC-1 Cell Death (%) 2 h, [peptides] = 200 μM” value (MEC-1 cells) was 6%.
